Earlier results in article PMC4269829 (Cancer cell, 2014).

Experiments:
ALK with F1174 mutation = settings: ref Friboulet et al., 2014
[1] = tested on: ALK variant with I1171T mutation; settings: crizotinib-resistant I1171T mutation; ref Friboulet et al., 2014
[2] = tested on: ALK variant with L1196M mutation; settings: crizotinib-resistant L1196M mutation; ref Friboulet et al., 2014

Cc1cc(Nc2ncc(Cl)c(Nc3ccccc3S(=O)(=O)C(C)C)n2)c(OC(C)C)cc1C1CCNCC1 [ceritinib]
overcoming resistance of ALK mutation (in words) (ALK with F1174 mutation): not to overcome resistance
inhibition of ALK variant (in words) [1]: inhibit
inhibition of ALK variant (in words) [2]: inhibit
